Several values for one entry are separate records, joined by “and”; a condition that tells them apart may be missing. Equal values may be shown once.
Columns and labels:
[1] = tested on: intracranially implanted human glioblastoma U251; assay: Antitumor activity against intracranially implanted U251 glioblastoma in NCr-nu mice (RP-36); format: in vivo; settings: for DAYS OF DEATH: individual animals
Procedure: The treatment schedule of the intracranially implanted U251 glioblastoma cells was iv, once daily, every sixth day for three treatments (q6d×3), beginning on day four post-implant. […] For the intracranially implanted studies, the compounds were evaluated based on their ability to increase the life span of the animals. The positive control used for both of these tumor models was nitrosourea.
The oversight committee was the Southern Research Institutional Animal Care and Use Committee; the protocol used was IACUC No. 96-8-50.
(§1) Product (Ia) was prepared in 5% ethanol, 5% tween 80, 90% D5W
(§2) Product (Ia) was administered in 0.4 ml/mouse based on a total body weight average.
(§3) Nitrosourea was administered 0.1 ml/10 g of body weight.
(§4) Any intracranially implanted animal that appeared to be moribund was euthanized for humane purposes. Since efficacy studies fall within this category of basic research, experiment termination was based on resultants that were determined to be optimal.
Six to eight week old athymic NCr-nu female mice were used for the intracranially implanted U251 trials.
The cells were injected into the cerebrum to the right of the midline with a 25 gauge, ⅜ inch, stainless steel needle. Cultured cells were used for the U251 experiment (RP-36). The treatment schedule was q6d×3, iv, beginning on day four, post-implant. […] The treatment schedule was q4d×3, iv, beginning on day two, post-implant. Nitrosourea was given in each experiment for comparative purposes because of its known activity against CNS tumors.

[2] = tested on: intracranially implanted human glioblastoma SF-295; assay: Antitumor activity against intracranially implanted SF-295 glioblastoma in NCr-nu mice (RP-38); format: in vivo; settings: for DAYS OF DEATH: individual animals
Source text: Four studies were initiated to evaluate the response of U251 and SF-295 glioblastomas to treatment with product (Ia). In the two studies, U251 and SF-295 glioblastomas were initiated from intracranially implanted cells at a volume of 10^6 cells per mouse. The treatment schedule of the intracranially implanted U251 glioblastoma cells was iv, once daily, every sixth day for three treatments (q6d×3), beginning on day four post-implant. The treatment schedule of the intracranially implanted SF-295 glioblastoma cells was iv, once daily, every fourth day for three treatments (q4d×3), beginning on day two post-implant. For the intracranially implanted studies, the compounds were evaluated based on their ability to increase the life span of the animals. The positive control used for both of these tumor models was nitrosourea.
In these experiments, general DCTD, NCI techniques and procedures for in vivo efficacy studies were modified for special application (In Vivo Cancer Models, NIH Publication No. 84-2635, 1984). These studies were conducted in approved facilities (AAALAC Registration No. 000643, AALAS Membership No. 840723001, USDA Registration No. 64-R-001, OPPR, PHS, NIH, AWA, Assurance No. A3046-01). These facilities are ISO 9001 certified. The oversight committee was the Southern Research Institutional Animal Care and Use Committee; the protocol used was IACUC No. 96-8-50.
as §1
Nitrosourea was prepared in 2% ethanol, 98% physiological saline.
as §2, §3, §4
Six to eight week old athymic NCr-nu female mice were used for the intracranially implanted U251 trials. Six to eight week old athymic NCr-nu male mice were used for the intracranially implanted SF-295 trials.
As previously mentioned, this experiment was designed to evaluate the activity of product (Ia) against intracranially U251 and SF-295 glioblastomas in athymic MCr-nu mice. The dosages for product (Ia) were 30, 20 and 13.4 mg/kg/dose. For the two intracranially implanted experiments, cells were prepared at a concentration of 3.33×10^7 cells per ml of media and injected at a volume of 0.03 ml per mouse. The cells were injected into the cerebrum to the right of the midline with a 25 gauge, ⅜ inch, stainless steel needle. Cultured cells were used for the U251 experiment (RP-36). The treatment schedule was q6d×3, iv, beginning on day four, post-implant. A tumor brei, made from solid tumor, was used for the SF-295 experiment (RP-38). The treatment schedule was q4d×3, iv, beginning on day two, post-implant. Nitrosourea was given in each experiment for comparative purposes because of its known activity against CNS tumors. The dosages were 27, 18 and 12 mg/kg/dose and the treatment schedule was the same as the treatment schedule for product (Ia) in each experiment.

[3] = 18.0 mg/kg/dose IV Q6D×3(4), listed as nitrosourea
[4] = 18.0 mg/kg/dose IV Q4D×3(2), listed as nitrosourea
[5] = 27.0 mg/kg/dose IV Q4D×3(2), listed as nitrosourea

NC(=O)NN=O [Nitrosourea, reference compound]
122-DAY SURV./TOTAL ([1]; 12.0 mg/kg/dose IV Q6D×3(4)): 0/10
% ILS ([1]; 12.0 mg/kg/dose IV Q6D×3(4)): +51%
MEDIAN DAY OF DEATH ([1]; 12.0 mg/kg/dose IV Q6D×3(4)): 51.5 days
DAYS OF DEATH ([1]; 12.0 mg/kg/dose IV Q6D×3(4)): 69 day (2×) and 80 day and 41 day and 45 day and 49 day (3×) and 54 day and 66 day
% ILS ([1]; 12.0 mg/kg/dose IV Q6D×3(4), listed as nitrosourea): 51%
122-DAY SURV./TOTAL ([1]; 18.0 mg/kg/dose IV Q6D×3(4)): 7/10
% ILS ([1]; 18.0 mg/kg/dose IV Q6D×3(4)): +205%
MEDIAN DAY OF DEATH ([1]; 18.0 mg/kg/dose IV Q6D×3(4)): 104.0 days
DAYS OF DEATH ([1]; 18.0 mg/kg/dose IV Q6D×3(4)): 94 day and 104 day (2×)
122-DAY SURV./TOTAL [1, 3]: seven of ten
% ILS [1, 3]: 205%
122-DAY SURV./TOTAL ([1]; 27.0 mg/kg/dose IV Q6D×3(4)): 10/10
122-DAY SURV./TOTAL ([1]; 27.0 mg/kg/dose IV Q6D×3(4), listed as nitrosourea): ten of ten
MTD ([1]; iv q6d×3, U251 experiment RP-36): 27 mg/kg/dose
68 DAY SURV./TOTAL ([2]; 12.0 mg/kg/dose IV Q4D×3(2)): 0/10
% ILS ([2]; 12.0 mg/kg/dose IV Q4D×3(2)): +106%
MEDIAN DAY OF DEATH ([2]; 12.0 mg/kg/dose IV Q4D×3(2)): 33.0 days
DAYS OF DEATH ([2]; 12.0 mg/kg/dose IV Q4D×3(2)): 33 day (5×) and 40 day and 22 day and 23 day and 26 day (2×)
% ILS ([2]; 12.0 mg/kg/dose IV Q4D×3(2), listed as nitrosourea): 106%
68 DAY SURV./TOTAL ([2]; 18.0 mg/kg/dose IV Q4D×3(2)): 1/10
% ILS ([2]; 18.0 mg/kg/dose IV Q4D×3(2)): +131%
MEDIAN DAY OF DEATH ([2]; 18.0 mg/kg/dose IV Q4D×3(2)): 37.0 days
DAYS OF DEATH ([2]; 18.0 mg/kg/dose IV Q4D×3(2)): 40 day and 41 day and 33 day and 34 day (2×) and 35 day and 37 day (3×)
68 DAY SURV./TOTAL [2, 4]: one 68-day survivor out of ten animals
% ILS [2, 4]: 131%
68 DAY SURV./TOTAL ([2]; 27.0 mg/kg/dose IV Q4D×3(2)): 2/10
% ILS ([2]; 27.0 mg/kg/dose IV Q4D×3(2)): +50%
MEDIAN DAY OF DEATH ([2]; 27.0 mg/kg/dose IV Q4D×3(2)): 24.0 days
DAYS OF DEATH ([2]; 27.0 mg/kg/dose IV Q4D×3(2)): 64 day and 15 day and 16 day (2×) and 19 day and 29 day and 37 day and 56 day
68 DAY SURV./TOTAL [2, 5]: two 68-day survivors out of ten animals
% ILS [2, 5]: 50%
MTD ([2]; in vivo, iv): 27 mg/kg/dose
